Assay results taken from article PMC10740831, “Synthesis, Hydrolytic Stability and In Vivo Biological Study of Bioconjugates of the Tetrapeptides FELL Containing Pyrrole Moiety” (Biomedicines, 2023).
“Also recorded” adds a separate entry of the source. Peptide text beside a SMILES is read from it. * marks the point of attachment. X1 = CCOC(=O)c1c(C)[nH]c(C(=O)*)c1C; X2 = CCOC(=O)c1[nH]c(C)c(C(=O)*)c1C

Columns and labels:
opioid receptor = test: Paw pressure test after Naloxone pretreatment; format: in vivo, rat; conditions: Naloxone 1 mg/kg i.p. before bioconjugate 0.25 mg/kg i.p.; compared with no pretreatment; Figure 7
Protocol: (§1) Several groups of experimental animals were used. Each group contains 8–10 rats: • The control group receives 0.2 mL of saline intraperitoneally injected (i.p.); • Six experimental groups receiving one of the 6 tested substances (0.25 mg/kg, i.p.)—pyrrole acid A, pyrrole acid B, BB19A, BB19B, BB20A, and BB20B; • Four experimental groups receiving Naloxone (1 mg/kg, i.p.) before the administration of the newly synthesized bioconjugates BB19A, BB19B, BB20A, and BB20B; • Four experimental groups receiving AM251 (1.25 mg/kg, i.p.) before the administration of the newly synthesized bioconjugates BB19A, BB19B, BB20A, and BB20B.
(§2) Pretreatments with the non-selective opioid receptor antagonist Naloxone or the cannabinoid receptor antagonist AM251 were performed in order to estimate the types of receptors engaged in the effects observed—respectively, the opioid or the cannabinoid receptor [35].
(§3) An analgesiometer was used to measure the specific changes in the mechanical nociceptive thresholds (PPT) of experimental animals). A pressure was applied to the hind-paw and the value (g) required to elicit a nociceptive response (such as squeak or struggle) was taken as the mechanical nociceptive threshold. A cut-off value of 500 g was used to prevent damage of the paw. The targeted compounds were administrated and further nociception was evaluated each 10 min from the 10th min until the 50th min.
(§4) The results were statistically assessed by one-way analysis of variance followed by Newman-Keuls post hoc comparison test. One-Way ANOVA has been used to analyze the data. Values are represented in arbitrary units (AU) according to the scale, as mean ± S.E.M. Values of p < 0.05 were considered to indicate statistical significance.

male Wistar rats = test: Nociceptive Paw Pressure test (Randall–Selitto test), analgesic activity; format: in vivo, rat; conditions: 0.25 mg/kg i.p.; for course of analgesic activity over time (in words) / analgesic activity (paw pressure thresholds): Figure 6; for analgesic activity (paw pressure thresholds): male Wistar rats, 8–10 per group, measured every 10 min from 10th to 50th min; for highest analgesic activity reached, as percent of that of the parent acid: BB20A vs acid A, BB19B vs acid B
Protocol: The male Wistar rats (180–200 g) were used for all experiments. All animals were kept at around 22 °C and under normal conditions. The experimental procedures are realized in the interval 10:00 a.m. to 1:00 p.m. and are approved by the Research Ethics Commission of the Medical University-Sofia.
as §1, §3, §4

cannabinoid receptor = test: Paw pressure test after AM251 pretreatment; format: in vivo, rat; conditions: AM251 1.25 mg/kg i.p. before bioconjugate 0.25 mg/kg i.p.; for time points with paradoxically higher analgesia after AM251 pretreatment than without pretreatment: Figure 7
Protocol: as §1, §2, §3, §4

[1] = previously evaluated in vivo; cited from earlier work
Excerpt: Parent compound FELL (Phe-Glu-Leu-Leu-OH) and four analogs of the tetrapeptide were previously evaluated in vivo for their analgesic activity.

[2] = system: white blood cell accumulation in the bronchoalveolar fluid; conditions: cited from earlier work
Excerpt: In this context, tetrapeptide sequence H-FELL-OH is known from the literature as an anti-inflammatory agent.

Compound: CCOC(=O)c1c(C)[nH]c(C(=O)N[C@@H](Cc2ccccc2)C(=O)N[C@@H](CCC(=O)O)C(=O)N[C@@H](CC(C)C)C(=O)N[C@@H](CC(C)C)C(N)=O)c1C [BB19A, A-Phe-Glu-Leu-Leu-NH2] (X1-FELL-NH2)
- analgesic activity after opioid receptor blockade (Naloxone pretreatment), in words (opioid receptor): significant analgesia that even initially exceeded that of the substances without the pretreatment; also recorded: naloxone-independent in the first phase and naloxone-dependent in the second
- course of analgesic activity over time (in words) (male Wistar rats; 10th to 50th min): biphasic activity
- analgesic activity on the 50th min compared with parent pyrrole acid (male Wistar rats; 50th min): exceeded the parent alpha acid
- analgesic activity (paw pressure thresholds) (male Wistar rats): exhibited analgesic activity
- time points with paradoxically higher analgesia after AM251 pretreatment than without pretreatment (cannabinoid receptor): 10th min

Compound: CCOC(=O)c1c(C)[nH]c(C(=O)N[C@@H](Cc2ccccc2)C(=O)N[C@@H](CCC(=O)O)C(=O)N[C@@H](CC(C)C)C(=O)N[C@@H](CC(C)C)C(=O)O)c1C [BB20A, A-Phe-Glu-Leu-Leu-OH] (X1-FELL-OH)
- analgesic activity after opioid receptor blockade (Naloxone pretreatment), in words (opioid receptor): Opioid receptors appear to be involved
- course of analgesic activity over time (in words) (male Wistar rats; 10th to 50th min): decreased to control values
- analgesic activity (paw pressure thresholds) (male Wistar rats): exhibited analgesic activity
- highest analgesic activity reached, as percent of that of the parent acid (male Wistar rats): more than 87%
- involvement of cannabinoid receptors in the analgesic effect (AM251 pretreatment), in words (cannabinoid receptor): they “turn on” at a later stage—after the 20th minute
- time points with paradoxically higher analgesia after AM251 pretreatment than without pretreatment (cannabinoid receptor): 10th min

Compound: CCOC(=O)c1[nH]c(C)c(C(=O)N[C@@H](Cc2ccccc2)C(=O)N[C@@H](CCC(=O)O)C(=O)N[C@@H](CC(C)C)C(=O)N[C@@H](CC(C)C)C(=O)O)c1C [BB20B, B-Phe-Glu-Leu-Leu-OH] (X2-FELL-OH)
- analgesic activity after opioid receptor blockade (Naloxone pretreatment), in words (opioid receptor): Opioid receptors appear to be involved
- analgesic activity / PPTs on the 10th min compared with parent pyrrole acid (male Wistar rats): equivalent to the parent beta acid’s ones
- course of analgesic activity over time (in words) (male Wistar rats; 10th to 50th min): slowly decreased to control levels
- analgesic activity (paw pressure thresholds) (male Wistar rats): exhibited analgesic activity
- involvement of cannabinoid receptors in the analgesic effect (AM251 pretreatment), in words (cannabinoid receptor): Cannabinoid receptors are also involved

Compound: CCOC(=O)c1c(C)[nH]c(C(=O)O)c1C [acid A, 4-(Ethoxycarbonyl)-3,5-dimethyl-1H-pyrrole-2-carboxylic Acid]
- duration of short-lasting analgesic activity (male Wistar rats): about 10 min
- time window of short-lasting analgesic activity (male Wistar rats): between the 10th and 20th min
- decrease of analgesic activity until the end of the estimated time (male Wistar rats; up to 50th min): 56%

Compound: CCOC(=O)c1[nH]c(C)c(C(=O)O)c1C [acid B, 5-(Ethoxycarbonyl)-2,4-dimethyl-1H-pyrrole-3-carboxylic Acid]
- duration of short-lasting analgesic activity (male Wistar rats): about 10 min
- time window of short-lasting analgesic activity (male Wistar rats): between the 20th and 30th min
- PPTs on the 50th min compared with controls (male Wistar rats; 50th min): almost equivalent to the controls’

Compound: B-Phe-Glu-Leu-Leu-NH2 [BB19B, bioconjugate of pyrrole acid B and tetrapeptide FELL-NH2]
- analgesic activity after opioid receptor blockade (Naloxone pretreatment), in words (opioid receptor): significant analgesia that even initially exceeded that of the substances without the pretreatment
- analgesic activity / PPTs on the 10th min compared with parent pyrrole acid (male Wistar rats): more significant than the parent beta acid
- variation of analgesic activity during the whole time of the experiment (male Wistar rats; 10th to 50th min): less than 7%
- course of analgesic activity over time (in words) (male Wistar rats; 10th to 50th min): sustained analgesic activity
- analgesic activity on the 50th min compared with parent pyrrole acid (male Wistar rats; 50th min): more significant than the parent beta acid
- analgesic activity (paw pressure thresholds) (male Wistar rats): exhibited analgesic activity
- highest analgesic activity reached, as percent of that of the parent acid (male Wistar rats): 64.4%
- time points with paradoxically higher analgesia after AM251 pretreatment than without pretreatment (cannabinoid receptor): 10th, 20th, and 30th min

Compound: Phe-Glu-Leu-Leu-NH2 [C-terminal amide of the tetrapeptide FELL]
- analgesic activity over time (in words) [1]: gradually increased analgesic activity with time

Compound: Phe-Glu-Leu-Leu-OH [H-FELL-OH, parent tetrapeptide known as an anti-inflammatory agent]
- reduction of the total number of white blood cell accumulation in the bronchoalveolar fluid in lungs [2]: 51%
- analgesic activity over time (in words) [1]: constantly increasing analgesic activity for the total time of the evaluation
